This note sets out measurements from US20240246946A1, “MODULATORS OF TREX1” (Constellation Pharmaceuticals, Inc., priority 2021, published 2024).

Each structure is given as a SMILES string. A value given as a limit tells only on which side of the number the result lay.

The target in one experiment is T1, full length human TREX1 (Homo sapiens, UniProt Q9NSU2).
T1 construct: N-terminally His-Tev tagged full length human TREX1; made in house; host or cells: E. coli
T1 sequence (Q9NSU2 1-314): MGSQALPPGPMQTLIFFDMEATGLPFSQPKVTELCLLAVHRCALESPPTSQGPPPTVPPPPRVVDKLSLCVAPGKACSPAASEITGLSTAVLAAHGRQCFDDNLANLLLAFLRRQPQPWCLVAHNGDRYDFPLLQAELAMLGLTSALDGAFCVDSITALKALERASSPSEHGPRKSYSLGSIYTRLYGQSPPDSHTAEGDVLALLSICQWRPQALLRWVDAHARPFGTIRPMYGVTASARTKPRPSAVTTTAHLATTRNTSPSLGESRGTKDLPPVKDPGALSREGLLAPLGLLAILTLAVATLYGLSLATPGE
Briefly: TREX1 Kinetics Assays (TR-FRET association and dissociation, global fit with Kintek Explorer). The format is binding. The conditions noted are these: for Kd / residence time: hTREX1, TR-FRET kinetics; for koff / kon: hTREX1, TR-FRET, 25° C., global fit. How it is done:
Compound binding kinetics were assessed using a pair of TR-FRET assays which measure the proportion of protein bound to a biotinylated TREX1 inhibitor (“probe”).
N-terminally His-Tev tagged full length human TREX1 (expressed in E. coli and purified in house), complexed with Eu-W1024-anti-6×His (“Eu”; PerkinElmer) in reaction buffer (50 mM Tris, 150 mM NaCl, 2 mM DTT, 0.1 mg/mL BSA, 0.01% (w/v) Tween-20, 5 mM MgCl2, pH 7.4) was combined with an equal volume of test compound in reaction buffer and incubated at 25° C. Concentrations at this stage were 1 nM TREX1/Eu complex, and four concentrations of compound (diluted from 10 mM stocks in 100% DMSO). At defined time points, 18 μL of this mixture was withdrawn and combined with 2 μL probe to a final concentration of 1 μM probe. After incubating for 30 seconds, 18 μL was withdrawn and combined with 2 μL streptavidin-allophycocyanin (“SA-APC”; PerkinElmer) to a final concentration of 1.5 μM SA-APC. Fifteen μL of this mixture was then immediately transferred to a 384-well Black ProxiPlate Plus (PerkinElmer) and read in an EnVision plate reader (PerkinElmer) measuring fluorescence at 615 nm and 665 nm following excitation w/337 nm laser light. Final concentrations were 0.8 nM TREX1/Eu complex, 0.9 μM probe, and 1.5 μM SA-APC.
N-terminally His-Tev tagged full length human TREX1 (expressed in E. coli and purified in house), complexed with Eu-W1024-anti-6×His (“Eu”; PerkinElmer) in reaction buffer (50 mM Tris, 150 mM NaCl, 2 mM DTT, 0.1 mg/mL BSA, 0.01% (w/v) Tween-20, 5 mM MgCl2, pH 7.4) was combined with an equal volume of test compound in reaction buffer. Concentrations at this stage were 100 nM TREX1/Eu complex and 100 nM test compound (diluted from 10 mM stocks in 100% DMSO). Following an equilibration period of at least an hour at 25° C., this mixture was diluted 100-fold into reaction buffer containing 1 μM probe, and incubated at 25° C. At defined time points, 36 μL of the reaction mixture was withdrawn and combined with 4 μL streptavidin-allophycocyanin (“SA-APC”; PerkinElmer) to a final concentration of 1.5 μM SA-APC. Fifteen μL of this mixture was then immediately transferred to duplicate wells of a 384-well Black ProxiPlate Plus (PerkinElmer) and read in an EnVision plate reader (PerkinElmer) measuring fluorescence at 615 nm and 665 nm following excitation w/337 nm laser light.
The TR-FRET signal, a ratio of 665 nm/615 nm emitted light, was converted to fraction enzyme bound to test compound by normalizing to low signal (no enzyme or test compound) and high signal (no test compound) controls. Data from both association and dissociation experiments were fitted globally using Kintek Explorer software, which computes the rate constants directly.
For orientation: In TR-FRET formats the signal depends on donor and acceptor labels being close together.

The next experiment concerns the target T2, hTREX1 (Homo sapiens, UniProt Q9NSU2).
T2 construct: host or cells: HCT116 dual cells
T2 sequence (Q9NSU2 1-314): T1 sequence (Q9NSU2 1-314)
Put plainly: hTREX1 HCT116 Cell Assay (HCT116 dual cells, Lucia luciferase reporter of Type I interferon induction). The format is cell-based. The conditions noted are these: TREX1i 4 h before pBR322/BstNI transfection, read after 48 h. Put shortly: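 HCT116 dual cells carrying an ISRE-type STAT1/STAT2-driven secreted Lucia luciferase reporter were pretreated with TREX1 inhibitor for 4 h (≤0.1% DMSO), then transfected with pBR322/BstNI DNA (100 ng/well, Lipofectamine LTX). Luciferase in medium read after 48 h at 37 °C.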
(In general: Reporter assays use an easily measured gene product as a stand-in for the process of interest.)

Take `CC(c1nc(C(=O)Nc2cnoc2)c(O)c(=O)n1C)C(c1cnn(C)c1)c1ccccc1C#N` (single isomer, unassigned) [Example 2 D1E1]: on full length human TREX1, the Kd was 0.231 nM, the residence time amounted to 368 min, the koff is 4.53e-05 s⁻¹ and the kon is 197000 M⁻¹ s⁻¹. This molecule also had an IC50 at hTREX1 of under 10 nM.
The corresponding values for `CC(c1nc(C(=O)Nc2cnoc2)c(O)c(=O)n1C)C(c1ccccc1C#N)c1cn(C)nc1C#N` (single isomer, unassigned) [Example 10 D1E1] are 0.036 nM, 613 min, 2.72e-05 s⁻¹, 757000 M⁻¹ s⁻¹ and under 10 nM.
The like results for `CCn1cc(C(c2ccccc2C#N)C(C)c2nc(C(=O)Nc3cnoc3)c(O)c(=O)n2C)cn1` (single isomer, unassigned) [Example 13 D1E1] were, in that order, 0.209 nM, 370 min, 4.5e-05 s⁻¹, 215000 M⁻¹ s⁻¹ and under 10 nM.
The corresponding values for `CC(c1nc(C(=O)Nc2cnoc2)c(O)c(=O)n1C)C(c1cnn(C)c1)c1cc(F)ccc1C#N` (single isomer, unassigned) [Example 14 D1E2] are 0.245 nM, 310 min, 5.38e-05 s⁻¹, 220000 M⁻¹ s⁻¹ and under 10 nM.
As to `CCn1cc(C(c2ccc(F)cc2C#N)C(C)c2nc(C(=O)Nc3cnoc3)c(O)c(=O)n2C)cn1` (single isomer, unassigned) [Example 16 D1E1], at full length human TREX1, binding was put at a Kd of 0.245 nM, the residence time stood at 461 min, the koff was 3.62e-05 s⁻¹ and the kon was 147000 M⁻¹ s⁻¹. The IC50 against hTREX1 was under 10 nM.
On to `CCn1cc(C(c2cc(F)ccc2C#N)C(C)c2nc(C(=O)Nc3cnoc3)c(O)c(=O)n2C)cn1` (single isomer, unassigned) [Example 17 D1E2], for which, at full length human TREX1, the Kd amounted to 0.28 nM, the residence time was 353 min, the koff was 4.72e-05 s⁻¹ and the kon is 168000 M⁻¹ s⁻¹. For the same molecule, on hTREX1, the IC50 was under 10 nM.
The like results for `CC(c1nc(C(=O)Nc2cnoc2)c(O)c(=O)n1C)C(c1cnn(CC(F)(F)F)c1)c1ccccc1C#N` (single isomer, unassigned) [Example 22 D1E1] were, in that order, 0.614 nM, 256 min, 6.5e-05 s⁻¹, 106000 M⁻¹ s⁻¹ and under 10 nM.
The corresponding values for `CC(c1nc(C(=O)Nc2cnoc2)c(O)c(=O)n1C)C(c1cnn(CC2CC2)c1)c1ccccc1C#N` (single isomer, unassigned) [Example 23 D1E2] are 0.529 nM, 290 min, 5.73e-05 s⁻¹, 108000 M⁻¹ s⁻¹ and 10 to 100 nM.
The corresponding values for `CC(c1nc(C(=O)Nc2cnoc2)c(O)c(=O)n1C)C(c1cnn(C)c1)c1cc(Cl)ccc1C#N` (single isomer, unassigned) [Example 26 D1E2] are 0.405 nM, 269 min, 6.2e-05 s⁻¹, 153000 M⁻¹ s⁻¹ and 10 to 100 nM.
`CC(c1nc(C(=O)Nc2cnoc2)c(O)c(=O)n1C)C(c1cnn(C(F)F)c1)c1ccccc1C#N` (single isomer, unassigned) [Example 38 D1E1]: at full length human TREX1, the Kd was 0.351 nM, the residence time was 290 min, the koff was 5.73e-05 s⁻¹ and the kon is 163000 M⁻¹ s⁻¹. This molecule displayed an IC50 against hTREX1 of under 10 nM.
Regarding `Cc1cncc(C(c2ccccc2C#N)C(C)c2nc(C(=O)Nc3cnoc3)c(O)c(=O)n2C)n1` (single isomer, unassigned) [Example 53 D1E2], at full length human TREX1, binding was put at a Kd of 0.255 nM, the residence time worked out at 483 min, the koff was 3.45e-05 s⁻¹ and the kon was 135000 M⁻¹ s⁻¹. At hTREX1, this molecule registered an IC50 of under 10 nM.
As for `Cc1nn(C)cc1C(c1cc(F)ccc1C#N)C(C)c1nc(C(=O)Nc2cnoc2)c(O)c(=O)n1C` (single isomer, unassigned) [Example 57 D1E2], on full length human TREX1, the residence time is 431 min and the koff is 3.87e-05 s⁻¹. Besides, the IC50 against hTREX1 was under 10 nM.
On full length human TREX1, `CC(c1nc(C(=O)Nc2cnoc2)c(O)c(=O)n1C)C(c1cnn(C)c1)c1ccccc1Cl` (single isomer, unassigned) [Example 77 D1E1] had a Kd of 0.338 nM, a residence time of 215 min, a koff of 7.77e-05 s⁻¹ and a kon of 230000 M⁻¹ s⁻¹. On hTREX1, this molecule registered an IC50 of 10 to 100 nM.
In the case of `Cc1nn(C)c(C)c1C(c1ccccc1C#N)C(C)c1nc(C(=O)Nc2cnoc2)c(O)c(=O)n1C` (single isomer, unassigned) [Example 78 D1E1], on full length human TREX1, the residence time is 413 min and the koff is 4.03e-05 s⁻¹. Besides, the IC50 at hTREX1 was under 10 nM.
The like results for `Cc1ncc(C(c2ccccc2C#N)C(C)c2nc(C(=O)Nc3cnoc3)c(O)c(=O)n2C)nc1C` (single isomer, unassigned) [Example 81 D1E2] were, in that order, 714 min, 2.33e-05 s⁻¹ and under 10 nM.
In the case of `CC(c1nc(C(=O)Nc2cnoc2)c(O)c(=O)n1C)C(c1ccccc1C#N)c1cn(C)nc1F` (single isomer, unassigned) [Example 91 D1E1], on full length human TREX1, the residence time came to 1820 min and the koff is 9.17e-06 s⁻¹. This molecule yielded an IC50 at hTREX1 of under 10 nM.
For `CC(c1nc(C(=O)Nc2cnoc2)c(O)c(=O)n1C)C(c1cnn(C(C)C)c1)c1ccccc1C#N` (single isomer, unassigned) [Example 105 D1E2], at full length human TREX1, the residence time came to 662 min and the koff is 2.52e-05 s⁻¹. At hTREX1, this molecule returned an IC50 of under 10 nM.
The like results for `Cc1cc(C(c2cc(F)ccc2C#N)C(C)c2nc(C(=O)Nc3cnoc3)c(O)c(=O)n2C)n(C)n1` (single isomer, unassigned) [Example 111 D1E2] were, in that order, 461 min, 3.62e-05 s⁻¹ and 10 to 100 nM.
The like results for `Cc1cnc(C(c2cc(F)ccc2C#N)C(C)c2nc(C(=O)Nc3cnoc3)c(O)c(=O)n2C)cn1` (single isomer, unassigned) [Example 115 D1E2] were, in that order, 515 min, 3.23e-05 s⁻¹ and under 10 nM.
The corresponding values for `Cc1nc(C)c(C(c2ccccc2C#N)C(C)c2nc(C(=O)Nc3cnoc3)c(O)c(=O)n2C)nc1C` (single isomer, unassigned) [Example 122 D1E1] are 1450 min, 1.15e-05 s⁻¹ and under 10 nM.
With `Cc1ncc(C(c2cc(F)ccc2C#N)C(C)c2nc(C(=O)Nc3cnoc3)c(O)c(=O)n2C)nc1C` (single isomer, unassigned) [Example 124 D1E2], on full length human TREX1, the residence time came to 741 min and the koff was 2.25e-05 s⁻¹. At hTREX1, this molecule yielded an IC50 of 10 to 100 nM.
On full length human TREX1, `Cc1ncc(C(c2ccccc2Cl)C(C)c2nc(C(=O)Nc3cnoc3)c(O)c(=O)n2C)nc1C` (single isomer, unassigned) [Example 125 D1E2] showed a residence time of 543 min and a koff of 3.07e-05 s⁻¹. Also, the IC50 at hTREX1 is under 10 nM.

By Kd is commonly meant the constant that tells how readily two partners part at equilibrium. What is called residence time is how long the partners stay bound on average. As usually defined, the koff is the first-order rate constant of dissociation. High values mean a short-lived complex, low ones a long-lived complex. By kon is commonly meant the rate constant with which the complex forms. The term IC50 denotes the point on the concentration scale where inhibition reaches its midpoint. Low values mean greater potency in that assay, high ones weaker potency in that assay.
